Measurements as given in patent publication US11045457B2, “Piperidinyl-3-(aryloxy)propanamides and propanoates” (priority 2018, dated 2021).

Target: SSTR4 (Homo sapiens (Human), UniProt P31391)
Assay: Inhibition of forskolin stimulated cAMP in CHO-K1 cells overexpressing SSTR4
Type: cell-based
Details: not given
Method: Inhibition of Forskolin Stimulated cAMP in Cells Overexpressing SSTR4
This cell-based assay measures the ability of compounds to inhibit forskolin stimulated cAMP in CHO-K1 cells overexpressing SSTR4. CHO-K1 cells overexpressing SSTR4 (CHO-SSTR4) are purchased from DiscoveRx (product code 95-0059C2). The CHO-SSTR4 cells are maintained in F12K media with 10% Fetal Bovine Serum (Hyclone), 1% Pen/Strep (Life Technologies), and 800 μg/mL G418 (Life Technologies). […] The next day, the culture media is removed from the cells and the cells are washed (added then removed) with Kreb's Ringer Buffer (ZenBio, KRB-1000 mL). […] The cells are incubated in […] for 30 minutes at room temperature. Cellular cAMP levels are detected with a HTRF LANCE Ultra cAMP kit (Perkin Elmer, catalog number TRF0264).
The assay is performed in accordance with the manufacturer's instructions. Five μL of diluted Eu-W8044 labeled streptavidin (dilution: 1:50 in cAMP Detection Buffer) is added to each well. Then 5 μL of diluted biotin cAMP (dilution: 1:150 in cAMP Detection Buffer) is added to each well. The plates are covered and allowed to incubate for 60 minutes at room temperature on a shaker. […] The pEC50 values are generated using Activity Base for Screening Data Management.

SSTR4, sequence (P31391 whole entry): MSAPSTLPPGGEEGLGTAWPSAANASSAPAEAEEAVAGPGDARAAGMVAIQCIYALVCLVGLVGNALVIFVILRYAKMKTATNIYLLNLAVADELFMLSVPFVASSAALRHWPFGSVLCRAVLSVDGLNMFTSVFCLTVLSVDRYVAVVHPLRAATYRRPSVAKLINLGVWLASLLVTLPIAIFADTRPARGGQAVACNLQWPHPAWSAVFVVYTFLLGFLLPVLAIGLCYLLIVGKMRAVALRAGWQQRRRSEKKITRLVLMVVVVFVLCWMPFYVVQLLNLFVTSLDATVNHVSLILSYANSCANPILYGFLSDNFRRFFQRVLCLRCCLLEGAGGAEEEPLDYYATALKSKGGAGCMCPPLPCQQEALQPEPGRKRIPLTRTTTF

| SMILES | SSTR4 Activity pEC50 |
| --- | --- |
| CCc1cccnc1OCC(C)(C)C(=O)NC1CCN(C)CC1 [Example 85, 3-((3-ethylpyridin-2-yl)oxy)-2,2-dimethyl-N-(1-methylpiperidin-4-yl)propanamide] | 7.1 |
| CN1CCC(NC(=O)C(C)(C)COc2ncc(Br)cc2C(F)(F)F)CC1 [Example 100, 3-((5-bromo-3-(trifluoromethyl)pyridin-2-yl)oxy)-2,2-dimethyl-N-(1-methylpiperidin-4-yl)propanamide] | 7.2 |
| C[C@H]1CN(C)CC[C@@H]1NC(=O)C(C)(C)COc1ccccc1Cl [Example 193, 3-(2-chlorophenoxy)-N-((3S,4S)-1,3-dimethylpiperidin-4-yl)-2,2-dimethylpropanamide] | 8.9 |
| CN1CCC(NC(=O)C(C)(C)COc2cnccc2C(F)(F)F)CC1 [Example 42, 2,2-dimethyl-N-(1-methylpiperidin-4-yl)-3-((4-(trifluoromethyl)pyridin-3-yl)oxy)propanamide] | 7.2 |
| CN1CCC(NC(=O)C(C)(C)COc2ncccc2C(F)(F)F)CC12CC2 (stereo not shown) [Example 175, 2,2-dimethyl-N-(4-methyl-4-azaspiro[2.5]octan-7-yl)-3-((3-(trifluoromethyl)pyridin-2-yl)oxy)propanamide] | 6.2 |
| Cc1cnc(OCC(C)(C)C(=O)N[C@H]2CN(C)CC23CC3)c(C)c1 [Example 154, (R)-3-((3,5-dimethylpyridin-2-yl)oxy)-2,2-dimethyl-N-(5-methyl-5-azaspiro[2.4]heptan-7-yl)propanamide] | 7.4 |
| CN1CCC(NC(=O)C(C)(C)COc2ncccc2C(F)F)CC1 [Example 90, 3-((3-(difluoromethyl)pyridin-2-yl)oxy)-2,2-dimethyl-N-(1-methylpiperidin-4-yl)propanamide] | 6.6 |
| CN1CCC(NC(=O)C(C)(C)COc2ncccc2C(F)(F)F)C(C)(C)C1 (stereo not shown) [Example 112, 2,2-dimethyl-3-((3-(trifluoromethyl)pyridin-2-yl)oxy)-N-(1,3,3-trimethylpiperidin-4-yl)propanamide] | 6.1 |
| Cc1cccc(C#N)c1OCC(C)(C)C(=O)NC1CCN(C)CC1 [Example 77, 3-(2-cyano-6-methylphenoxy)-2,2-dimethyl-N-(1-methylpiperidin-4-yl)propanamide] | 6.4 |
| CC(C)[C@@H]1CN(C)CC[C@@H]1NC(=O)C(C)(C)COc1ncccc1C(F)(F)F (relative stereo) [Example 34, cis-N-(3-isopropyl-1-methylpiperidin-4-yl)-2,2-dimethyl-3-((3-(trifluoromethyl)pyridin-2-yl)oxy)propanamide] | 6.1 |
| Cc1c(C#N)cccc1OCC(C)(C)C(=O)NC1CCN(C)CC1 [Example 75, 3-(3-cyano-2-methylphenoxy)-2,2-dimethyl-N-(1-methylpiperidin-4-yl)propanamide] | 5.5 |
| O=C(N[C@H]1CCNC[C@@H]1F)C(F)(F)COc1ncccc1C1CC1 [Example 198, 3-((3-cyclopropylpyridin-2-yl)oxy)-2,2-difluoro-N-((3S,4S)-3-fluoropiperidin-4-yl)propanamide] | 8.2 |
| Cc1cnccc1OCC(C)(C)C(=O)NC1CCN(C)CC1 [Example 50, 2,2-dimethyl-N-(1-methylpiperidin-4-yl)-3-((3-methylpyridin-4-yl)oxy)propanamide] | 6.2 |
| CN1CCC(NC(=O)C(C)(C)COc2nnc(Cl)cc2C(F)(F)F)CC1 [Example 98, 3-((6-chloro-4-(trifluoromethyl)pyridazin-3-yl)oxy)-2,2-dimethyl-N-(1-methylpiperidin-4-yl)propanamide] | 6.2 |
| Cc1cc(C#N)cnc1OCC(C)(C)C(=O)NC1CCN(C)CC1 [Example 51, 3-((5-cyano-3-methylpyridin-2-yl)oxy)-2,2-dimethyl-N-(1-methylpiperidin-4-yl)propanamide] | 6.1 |
| CN(C(=O)C(C)(C)COc1ncccc1C(F)(F)F)[C@H]1CCNC[C@@H]1F [Example 160, N-((3S,4S)-3-fluoropiperidin-4-yl)-N,2,2-trimethyl-3-((3-(trifluoromethyl)pyridin-2-yl)oxy)propanamide] | 6.4 |
| CN1CCC(NC(=O)C(C)(C)COc2ccc(Cl)cc2)CC1 [Example 217, 3-(4-chlorophenoxy)-2,2-dimethyl-N-(1-methylpiperidin-4-yl)propanamide] | 5.8 |
| Cc1cnc(OCC(C)(C)C(=O)N[C@@H]2CCN(C)C[C@H]2C)c(C)c1 (single isomer, unassigned) [Example 140] | 6.2 |
| CN1CCC(NC(=O)C(C)(C)COc2cccc(F)c2)CC1 [Example 203, 3-(3-fluorophenoxy)-2,2-dimethyl-N-(1-methylpiperidin-4-yl)propanamide] | 7.1 |
| CN1CC(NC(=O)C(C)(C)COc2ncccc2C(F)(F)F)CC1(C)C (stereo not shown) [Example 35, 2,2-dimethyl-3-((3-(trifluoromethyl)pyridin-2-yl)oxy)-N-(1,5,5-trimethylpyrrolidin-3-yl)propanamide] | 6.5 |
| CN1CCC(NC(=O)C(C)(C)COc2ccncc2C(F)(F)F)CC1 [Example 43, 2,2-dimethyl-N-(1-methylpiperidin-4-yl)-3-((3-(trifluoromethyl)pyridin-4-yl)oxy)propanamide] | 6.9 |
| CC[C@H]1CN(C)CC[C@@H]1NC(=O)C(C)(C)COc1ncccc1C(F)(F)F [Example 145, N-((3S,4S)-3-ethyl-1-methylpiperidin-4-yl)-2,2-dimethyl-3-((3-(trifluoromethyl)pyridin-2-yl)oxy)propanamide] | 6.2 |
| CN1CC[C@@H](NC(=O)C(C)(C)COc2ncccc2OC(F)(F)F)[C@H](c2ccccc2)C1 (relative stereo) [Example 167, 2,2-dimethyl-N-(trans-1-methyl-3-phenylpiperidin-4-yl)-3-((3-(trifluoromethoxy)pyridin-2-yl)oxy)propanamide] | 6.8 |
| CN1CCC(NC(=O)C(C)(C)COc2ncc(F)cc2Cl)CC1 [Example 45, 3-((3-chloro-5-fluoropyridin-2-yl)oxy)-2,2-dimethyl-N-(1-methylpiperidin-4-yl)propanamide] | 5.8 |

Same assay, conditions: read-out: SSTR4 Activity pEC50 (converted)

| SMILES | EC50 |
| --- | --- |
| Cc1cnc(OCC(C)(C)C(=O)N[C@@H]2CN(C)C[C@H]2C)c(C)c1 (relative stereo) [Example 183, 3-((3,5-dimethylpyridin-2-yl)oxy)-N-(trans-1,4-dimethylpyrrolidin-3-yl)-2,2-dimethylpropanamide] | 251 nM |
| Cc1ccc([C@@H]2CN(C)C[C@H]2NC(=O)C(C)(C)COc2ncccc2C)cn1 (relative stereo) [Example 60, trans-2,2-dimethyl-N-(1-methyl-4-(6-methylpyridin-3-yl)pyrrolidin-3-yl)-3-((3-methylpyridin-2-yl)oxy)propanamide] | 79.4 nM |
| C[C@@H]1CN(C)CC[C@@H]1NC(=O)C(C)(C)COc1ncccc1C(F)(F)F (racemic) [Example 12, cis-N-(1,3-dimethylpiperidin-4-yl)-2,2-dimethyl-3-((3-(trifluoromethyl)pyridin-2-yl)oxy)propanamide] | 126 nM |
| C[C@@H]1CN(C)CC[C@@H]1NC(=O)C(C)(C)COc1ncccc1C1CC1 (racemic) [Example 21, cis-3-((3-cyclopropylpyridin-2-yl)oxy)-N-(1,3-dimethylpiperidin-4-yl)-2,2-dimethylpropanamide] | 25.1 nM |
| CN1CC[C@@H](c2cnn(C)c2)[C@H](NC(=O)C(C)(C)COc2ncccc2C(F)(F)F)C1 (relative stereo) [Example 169, 2,2-dimethyl-N-(trans-1-methyl-4-(1-methyl-1H-pyrazol-4-yl)piperidin-3-yl)-3-((3-(trifluoromethyl)pyridin-2-yl)oxy)propanamide] | 251 nM |
| CCc1ccccc1OCC(C)(C)C(=O)N[C@@H]1CN(C)C[C@H]1OC (relative stereo) [Example 96, trans-3-(2-ethylphenoxy)-N-(4-methoxy-1-methylpyrrolidin-3-yl)-2,2-dimethylpropanamide] | 200 nM |
| CC(C)(COc1ncccc1C(F)(F)F)C(=O)N[C@@H]1CNC[C@H]1F (relative stereo) [Example 130, trans-N-(4-fluoropyrrolidin-3-yl)-2,2-dimethyl-3-((3-(trifluoromethyl)pyridin-2-yl)oxy)propanamide] | 251 nM |
| CN1CCC(NC(=O)C(C)(C)COc2cccnc2C(F)(F)F)CC1 [Example 52, 2,2-dimethyl-N-(1-methylpiperidin-4-yl)-3-((2-(trifluoromethyl)pyridin-3-yl)oxy)propanamide] | 79.4 nM |
| Cc1cccnc1OCC(C)(C)C(=O)N[C@@H]1CN(C)C[C@H]1c1ccc(Cl)cc1 (relative stereo) [Example 55, trans-N-(4-(4-chlorophenyl)-1-methylpyrrolidin-3-yl)-2,2-dimethyl-3-((3-methylpyridin-2-yl)oxy)propanamide] | 31.6 nM |
| CN1CC[C@@H](NC(=O)C(C)(C)COc2ncccc2OC(F)(F)F)[C@H](c2cnn(C(F)F)c2)C1 (relative stereo) [Example 126, trans-N-(3-(1-(difluoromethyl)-1H-pyrazol-4-yl)-1-methylpiperidin-4-yl)-2,2-dimethyl-3-((3-(trifluoromethoxy)pyridin-2-yl)oxy)propanamide] | 1.58 nM |
